ChEMBL document CHEMBL4052825, “Identification of Novel Coumestan Derivatives as Polyketide Synthase 13 Inhibitors against Mycobacterium tuberculosis” (J Med Chem, 2018)
Values after ≈ are worked out from the molar mass of the structure shown.

How the values were obtained:
[1] = test system: Mycobacterium tuberculosis; test: Antitubercular activity against resistant Mycobacterium tuberculosis harboring PKS13 mutant after 12 to 24 hrs by MABA; assay type: functional
[2] = Selectivity ratio of MIC=<90 for resistant Mycobacterium tuberculosis harboring PKS13 mutant to MIC=<90 for Mycobacterium tuberculosis H37Rv
[3] = test system: Mycobacterium tuberculosis; test: Antitubercular activity against isoniazid/rifampicin/fluoroquinolone-resistant Mycobacterium tuberculosis; assay type: functional

SMILES | MIC=<90 [1] [mg/L] | Selectivity ratio [2] | MIC [3] [µM]
O=c1oc2ccccc2c2oc3ccc(O)c(CN4CCCCC4)c3c12 | 16 (≈ 45.8 µM) | 64 to 128 | 
CCOC(=O)c1c(NC(=O)c2c(F)c(F)c(F)c(F)c2F)sc2c1CCN(CC)C2 |  |  | 0.2 to 0.4 (≈ 0.0897 to 0.179 µg/mL)
CCOC(=O)c1c(-c2ccc(F)cc2)oc2ccc(O)c(CN3CCCCC3)c12 | 4 (≈ 10.1 µM) | 8 | 
COc1ccc2c(c1)oc(=O)c1c2oc2ccc(O)c(CN3CCCCC3)c21 | 16 (≈ 42.2 µM) | 64 | 
